Measurements: article PMC7032255 (Asian Journal of Pharmaceutical Sciences, 2018)
“Also recorded” adds a separate entry of the source. Read-outs that look alike come from different tables or passages of the source.

Key:
[1] = in human; parent drug versus its prodrug LY2140023; cited from earlier work
hPEPT1 = biological target: T1, hPEPT1 (Homo sapiens, UniProt P46059); assay: Uptake by MDCK-hPEPT1 cells versus MDCK mock cells; format: cell-based; settings: Fig. 6A
T1 sequence (P46059 1-708): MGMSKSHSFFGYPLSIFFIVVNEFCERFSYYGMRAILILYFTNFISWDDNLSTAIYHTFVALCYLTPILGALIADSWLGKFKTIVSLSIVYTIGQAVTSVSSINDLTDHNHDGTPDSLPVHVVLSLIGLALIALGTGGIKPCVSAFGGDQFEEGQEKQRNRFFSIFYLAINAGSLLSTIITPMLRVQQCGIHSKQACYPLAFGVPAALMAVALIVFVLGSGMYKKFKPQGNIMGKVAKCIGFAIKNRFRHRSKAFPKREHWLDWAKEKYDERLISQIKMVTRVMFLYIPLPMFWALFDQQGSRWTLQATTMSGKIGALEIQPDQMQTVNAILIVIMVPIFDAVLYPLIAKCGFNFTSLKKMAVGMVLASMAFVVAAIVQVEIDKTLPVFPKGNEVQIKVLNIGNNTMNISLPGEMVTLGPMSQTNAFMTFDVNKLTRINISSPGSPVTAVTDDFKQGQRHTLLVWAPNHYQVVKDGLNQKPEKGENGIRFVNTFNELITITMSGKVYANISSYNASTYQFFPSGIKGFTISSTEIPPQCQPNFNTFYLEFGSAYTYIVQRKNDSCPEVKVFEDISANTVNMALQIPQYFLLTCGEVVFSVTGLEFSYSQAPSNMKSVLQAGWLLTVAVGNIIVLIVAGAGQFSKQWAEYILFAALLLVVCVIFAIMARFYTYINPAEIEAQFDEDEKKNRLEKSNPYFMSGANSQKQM

[2] = cited from earlier work; for oral bioavailability of cytarabine: cytarabine versus its L-valyl prodrug valcytarabine
[3] = background value, no reference given; cited from earlier work
[4] = rat plasma, intravenous injection 8 mg/kg
[5] = rat plasma, oral administration, 160 mg/kg calculated as peramivir

In the case of N[C@@]1(C(=O)O)CS(=O)(=O)[C@H]2[C@H](C(=O)O)[C@H]21 [LY404039], the “oral bioavailability of the parent drug LY404039” value [1] is given as 6.0%.
In the case of CSCC[C@H](N)C(=O)N[C@@]1(C(=O)O)CS(=O)(=O)[C@H]2[C@H](C(=O)O)[C@H]21 [LY2140023], the “oral bioavailability of the parent drug LY404039” value [1] is given as 68.0%.
In the case of CCC(CC)[C@H](NC(C)=O)[C@@H]1[C@H](O)[C@@H](C(=O)O)C[C@H]1N=C(N)N [Peramivir], the “AUC0-∞ of peramivir” value [4] is reported as 3604.8 ng·h/mL, the t1/2 of peramivir [4] is reported as 3.9 h and the “AUC0-∞ of peramivir” value [5] is reported as 2955.9 ng·h/mL. For the same molecule, the Cmax of peramivir [5] was 771.6 ± 278.3 ng/mL, the Tmax of peramivir [5] was 1.0 h and the t1/2 of peramivir [5] was 3.2 h. The “F, absolute oral bioavailability of peramivir” value (rat, oral 160 mg/kg calculated as peramivir versus i.v. peramivir 8 mg/kg) was 4.1%, the “PEPT1-mediated transport (uptake in MDCK-hPEPT1 versus mock cells)” value (hPEPT1) was “no PEPT1-mediated transport; also recorded: not (statistically) significant different between MDCK-hPEPT1 and MDCK mock cells” and the oral bioavailability ([2]; peramivir given orally, background value, reference not given) was 3%. For the same molecule, the “log P” value [3] was −1.4.
In the case of Nc1ccn([C@@H]2O[C@H](CO)[C@@H](O)[C@@H]2O)c(=O)n1 [cytarabine], the “oral bioavailability of cytarabine” value [2] is listed as 21.8%.
In the case of CC(C)C(N)C(=O)OCC1OC(n2ccc(N)nc2=O)C(O)C1O (centres unmarked) [valcytarabine], the “oral bioavailability of cytarabine” value [2] is listed as 60.0%.
